Experimental data: ChEMBL document CHEMBL1201862, “PubChem BioAssay data set” (2004)
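Method: 48-hour compound exposure of cells in 96-well plates, five concentrations, linear interpolation of endpoints. At the GI50, growth is halved.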 Activity calls are given as the source filed them. Rule as the data show it: active = GI50 up to about 1.1 µM and inactive = higher.

Key:
Experiment in all cases: inhibition of tumour cell growth, NCI panel, 48 h
A498 = system: A498
BT-549 = system: BT-549
CAKI-1 = system: CAKI-1
HCT-15 = system: HCT-15
HL-60 = system: HL-60
LOX IMVI = system: LOX IMVI
MCF7 = system: MCF7
MDA-MB-231 = system: MDA-MB-231
MDA-MB-435 = system: MDA-MB-435
MDA-N = system: MDA-N
MOLT-4 = system: MOLT-4
NCI-H226 = system: NCI-H226
OVCAR-4 = system: OVCAR-4
OVCAR-8 = system: OVCAR-8
PC-3 = system: PC-3
RPMI-8226 = system: RPMI-8226
RXF 393 = system: RXF 393
SN12C = system: SN12C
SNB-19 = system: SNB-19
SNB-75 = system: SNB-75

SMILES | GI50 (A498) | GI50 (BT-549) | GI50 (CAKI-1) | GI50 (HCT-15) | GI50 (HL-60) | GI50 (LOX IMVI) | GI50 (MCF7) | GI50 (MDA-MB-231) | GI50 (MDA-MB-435) | GI50 (MDA-N) | GI50 (MOLT-4) | GI50 (NCI-H226) | GI50 (OVCAR-4) | GI50 (OVCAR-8) | GI50 (PC-3) | GI50 (RPMI-8226) | GI50 (RXF 393) | GI50 (SN12C) | GI50 (SNB-19) | GI50 (SNB-75)
CCCCCC(O)C(O)CCC[C@H](O)[C@H]1CC[C@H]([C@H]2CC[C@H]([C@H](O)CCCCCCCCCCCCC3=C[C@H](C)OC3=O)O2)O1 (some centres undefined) | 2.65 µM (inactive) | 8.93 µM (inactive) | 5.07 µM (inactive) | 3.81 µM | 1.57 µM (inactive) | 1.21 µM (inactive) | 1.9 µM (inactive) | 4.32 µM (inactive) | 1.5 µM (inactive) | 2.83 µM (inactive) | 2.32 µM (inactive) | 2.49 µM (inactive) | 5.11 µM (inactive) | 2.99 µM (inactive) | 2.94 µM (inactive) | 1.28 µM (inactive) | 7.33 µM (inactive) | 3.87 µM (inactive) | 3.14 µM (inactive) | 5.43 µM (inactive)
O=C(O)Cc1c[nH]c2ccc(F)cc12 | > 100 µM (inactive) | > 100 µM (inactive) | > 100 µM (inactive) | > 100 µM | > 100 µM (inactive) | > 100 µM (inactive) | > 100 µM (inactive) | > 100 µM (inactive) | > 100 µM (inactive) | > 100 µM (inactive) | > 100 µM (inactive) | > 100 µM (inactive) | > 100 µM (inactive) | > 100 µM (inactive) | > 100 µM (inactive) | > 100 µM (inactive) | > 100 µM (inactive) | > 100 µM (inactive) | > 100 µM (inactive) | > 100 µM (inactive)
C[C@]12CCC(=O)C=C1CC[C@@H]1[C@@H]2CC[C@]2(C)C(=O)/C(=C\c3ccccc3)C[C@@H]12 | 15.6 µM (inactive) | 25.8 µM (inactive) | 43.5 µM (inactive) | 21.9 µM | 9.79 µM (inactive) | 21.2 µM (inactive) | 19.1 µM (inactive) | > 50.8 µM (inactive) | 24.9 µM (inactive) | 16 µM (inactive) | 14 µM (inactive) | 2.38 µM (inactive) | 41.9 µM (inactive) | 21.7 µM (inactive) | 12.8 µM (inactive) | 10.9 µM (inactive) | 41.1 µM (inactive) | 15.1 µM (inactive) | 60.5 µM (inactive) | 61.1 µM (inactive)
Cn1cc(C[C@@H](N)C(=O)O)c2ccccc21 [INDOXIMOD] | > 100 µM (inactive) | > 100 µM (inactive) | > 100 µM (inactive) | > 100 µM | > 100 µM (inactive) | > 100 µM (inactive) | > 100 µM (inactive) | > 100 µM (inactive) | > 100 µM (inactive) | > 100 µM (inactive) | > 100 µM (inactive) | > 100 µM (inactive) | > 100 µM (inactive) | > 100 µM (inactive) | > 100 µM (inactive) | > 100 µM (inactive) | 20 µM (inactive) | > 100 µM (inactive) | > 100 µM (inactive) | > 100 µM (inactive)
CC(C)c1ccc(/C=C2\N=C(c3ccc([N+](=O)[O-])cc3)OC2=O)cc1 | > 100 µM (inactive) | > 100 µM (inactive) | > 100 µM (inactive) | > 100 µM | > 100 µM (inactive) | > 100 µM (inactive) | > 100 µM (inactive) | > 100 µM (inactive) | > 100 µM (inactive) | > 100 µM (inactive) | > 100 µM (inactive) | > 100 µM (inactive) | > 100 µM (inactive) | > 100 µM (inactive) | > 100 µM (inactive) | > 100 µM (inactive) | 14.9 µM (inactive) | > 100 µM (inactive) | > 100 µM (inactive) | > 100 µM (inactive)
O=c1[nH]nc(-c2ccccc2)c2[nH]c3c(c12)Cc1ccccc1-3 | 2.35 µM (inactive) | 21.7 µM (inactive) | 13.8 µM (inactive) | 0.374 µM | 0.665 µM (active) | 6.11 µM (inactive) | 0.158 µM (active) | 0.378 µM (active) | 0.386 µM (active) | 0.38 µM (active) | 1.19 µM (inactive) | 3.9 µM (inactive) | 3.79 µM (inactive) | 6.61 µM (inactive) | 4.47 µM (inactive) | 2.37 µM (inactive) | 6.19 µM (inactive) | 2.32 µM (inactive) | 7.06 µM (inactive) | 3.28 µM (inactive)
CSc1c(C#N)c(O)nc(N)c1C(=O)Nc1ccc(C)cc1 | 38.9 µM (inactive) | > 100 µM (inactive) | 32.2 µM (inactive) | > 100 µM | > 100 µM (inactive) | > 100 µM (inactive) | > 100 µM (inactive) | > 100 µM (inactive) | > 100 µM (inactive) | > 100 µM (inactive) | > 100 µM (inactive) | 34.4 µM (inactive) | > 100 µM (inactive) | > 100 µM (inactive) | > 100 µM (inactive) | > 100 µM (inactive) | > 100 µM (inactive) | > 100 µM (inactive) | > 100 µM (inactive) | > 100 µM (inactive)
CCC(C)NC(=S)N/N=C(\C)c1nc2cccnc2[nH]1 (centres undefined) | 57.3 µM (inactive) | 13.5 µM (inactive) | 4.07 µM (inactive) | 5.64 µM | 4.92 µM (inactive) | 10.9 µM (inactive) | 2.1 µM (inactive) | 6.95 µM (inactive) | 31.3 µM (inactive) | 47.4 µM (inactive) | 3.6 µM (inactive) | 4.42 µM (inactive) | 4.91 µM (inactive) | 4 µM (inactive) | 8.85 µM (inactive) | 21.6 µM (inactive) | 15.6 µM (inactive) | 21.6 µM (inactive) | 32.4 µM (inactive) | 48.5 µM (inactive)
CC(=O)NC1C(OCc2ccccc2)OC(CO)C(O)C1OCC(=O)N[C@@H](C)C(=O)N[C@H](CCC(=O)NCCCNc1c2ccccc2nc2cccc([N+](=O)[O-])c12)C(N)=O (some centres undefined) | 0.0547 µM (active) | 0.0845 µM (active) | 0.0338 µM (active) | 0.0312 µM | 0.0559 µM (active) | 0.0439 µM (active) | 0.018 µM (active) | 0.05 µM (active) | 0.0295 µM (active) | 0.023 µM (active) | 0.0269 µM (active) | 0.0586 µM (active) | 0.0418 µM (active) | 0.0746 µM (active) | 0.0368 µM (active) | 0.0411 µM (active) | 0.0352 µM (active) | 0.0397 µM (active) | 0.16 µM (active) | 0.122 µM (active)
O=C(Cc1nc2ccccc2[nH]c1=O)c1c[nH]c2ccccc12 | 14.7 µM (inactive) | 12.2 µM (inactive) | 20.2 µM (inactive) | 8.18 µM | 10.3 µM (inactive) | 13.7 µM (inactive) | 11.6 µM (inactive) | 19.1 µM (inactive) | 13.7 µM (inactive) | 12.1 µM (inactive) | 6.01 µM (inactive) | 11.9 µM (inactive) | 11.4 µM (inactive) | 14.1 µM (inactive) | 10.5 µM (inactive) | 6.92 µM (inactive) | 17.5 µM (inactive) | 13.8 µM (inactive) | 25.8 µM (inactive) | 25.1 µM (inactive)
O=C(O)C1(Cc2ccc3c(c2)CCC3)Cc2ccccc2C1=O (centres undefined) | 42.5 µM (inactive) | 37.8 µM (inactive) | – | 34.8 µM | 43.5 µM (inactive) | 78 µM (inactive) | > 100 µM (inactive) | > 100 µM (inactive) | > 100 µM (inactive) | > 100 µM (inactive) | 91.4 µM (inactive) | 91.4 µM (inactive) | 55.6 µM (inactive) | 83 µM (inactive) | 46.7 µM (inactive) | 35.8 µM (inactive) | > 100 µM (inactive) | 63.7 µM (inactive) | 79.3 µM (inactive) | 38.8 µM (inactive)
CC(C)=CCC[C@@H](C)c1c2ncc[nH]c-2c(C)c(=O)c1O | 30 µM (inactive) | 30.8 µM (inactive) | 35.1 µM (inactive) | 6.46 µM | 7.03 µM (inactive) | 25.1 µM (inactive) | 36.8 µM (inactive) | 25.2 µM (inactive) | 41.9 µM (inactive) | 37.8 µM (inactive) | 10.4 µM (inactive) | 16.9 µM (inactive) | 26.1 µM (inactive) | 10 µM (inactive) | 35.2 µM (inactive) | 20 µM (inactive) | 24.6 µM (inactive) | 28.8 µM (inactive) | 25.9 µM (inactive) | 28.2 µM (inactive)
CCOC(=O)C1=C(C)N(C)C(=S)NC1c1cccc(O)c1 (centres undefined) | 24.7 µM (inactive) | 32.9 µM (inactive) | 56.6 µM (inactive) | 30.3 µM | 17.8 µM (inactive) | 70.3 µM (inactive) | 29.6 µM (inactive) | 46.6 µM (inactive) | 12.5 µM (inactive) | 14.6 µM (inactive) | 37.8 µM (inactive) | 47.9 µM (inactive) | 36.3 µM (inactive) | 32.6 µM (inactive) | 38.5 µM (inactive) | 18.7 µM (inactive) | 24.3 µM (inactive) | 31.8 µM (inactive) | 54.3 µM (inactive) | 24.7 µM (inactive)
CN(C)Cc1cc(/N=N/c2ccccc2Cl)ccc1O | 12.7 µM (inactive) | 17 µM (inactive) | 15.1 µM (inactive) | 20.1 µM | 10.8 µM (inactive) | 12.6 µM (inactive) | 16.8 µM (inactive) | 18.2 µM (inactive) | 17.7 µM (inactive) | 17.5 µM (inactive) | 5.48 µM (inactive) | 16.1 µM (inactive) | 52.6 µM (inactive) | 6.05 µM (inactive) | 27.5 µM (inactive) | 23.7 µM (inactive) | 20.3 µM (inactive) | 25.6 µM (inactive) | 32.2 µM (inactive) | 18.7 µM (inactive)
